Like-named read-outs stand apart in the source and are kept apart here.
What was measured:
[1] = target: T1, MaxRH-N78E (Homo sapiens, UniProt P61244, K77E/M74V/N78E/Q72L/R75Q/R76A/Y73S); assay: Tyrosine fluorescence quenching titration; assay type: binding; details: MaxRH-N78E mutant
T1 construct: 6xHis tag + TEV site (N, cleaved yes); made in house; host or cells: E. coli BL21(DE3) pLysS
Description: (§1) The lyophilized protein (or peptide) was reconstituted in ultrapure water and incubated to room temperature for at least 1 hr. The protein or peptide was then sterile filtered using a pre-wet 0.2 μm polyethylene sulfone (PES) filter (VWR), and the concentration was determined by the absorbance at 274 nm using the extinction coefficient per tyrosine of ε274 = 1470 M^−1cm^−1. The final stock concentrations ranged from 50 to 100 μM.
(§2) For excess 34RH tyrosine fluorescence quenching experiments, samples were prepared with the following buffer components: sterile filtered water, 1xPBS (137 mM NaCl, 2.7 mM KCl, 4.3 mM Na2HPO4, 1.4 mM KH2PO4), and 5% total DMSO. The pH of the buffer was adjusted to 6 or 7.4 depending on the experiment performed. Three separate samples were prepared in 1xPBS and 5% total DMSO: one containing 50 μM 34RH alone, one containing 1 μM of protein and 50 μM 34RH, and one containing 1 μM protein alone. For the 34RH containing samples, the compound was delivered from a 1 mM DMSO stock. These samples were then serially diluted two-fold from 50 μM 34RH to 1.56 μM 34RH. All samples for fluorescence measurements maintained a final 5% DMSO concentration.
(§3) The samples were incubated for at least 15 min before fluorescence was measured. The samples were excited at 274 nm, and the emission spectra were obtained from 285 to 340 nm using 5 nm excitation and 5 nm emission slits using a Horiba Fluoromax 4 fluorometer. The fluorescence data were background corrected using buffer (for samples with only protein) or small molecule (for samples containing protein and 34RH) (Figure S4). The absorbance due to 34RH and protein at the excitation and emission wavelengths can suppress the observed fluorescence intensity to give rise to the inner filter effect. To account for this suppression, we corrected the fluorescence signals using Equation (3). This correction accounted for the fluorescence suppression due to the absorbance of both 34RH and the protein [47]. (3) Fcorr=Fobs∗ 10^Aex+ Aem/2
(§4) Here, the corrected fluorescence is Fcorr, the background-subtracted observed fluorescence is Fobs, and Aex and Aem are the total absorbance at the excitation and emission wavelengths, respectively. The amount of protein fluorescence quenched by 34RH at a particular concentration was calculated using Fcorr at λ = 304 nm (Equation (4)). (4) Fraction Quenched=1−Fcorr304nm of Protein +34RH/ Fcorr304nm of Protein only
(§5) The quenching data were fit to a Langmuir binding isotherm using Equation (5), from which the dissociation constant (KD) was obtained. Here, Qmax describes the maximum fraction quenched, [L]T is the total 34RH concentration, and [P]T is the total protein concentration. The total concentration of the protein was 1 µM for all fluoresce experiments conducted at a constant protein concentration. (5) Fraction Quenched=Qmax∗([L]T+P]T+ KD−(L]T+P]T+ KD)^2−4 ∗ L]T ∗ P]T/2∗[L]T

[2] = target: T2, P22 Max (Homo sapiens, UniProt P61244); assay: Tyrosine fluorescence quenching titration; assay type: binding; details: 1 µM P22 Max
T2 construct: 6xHis tag + TEV site (N, cleaved yes); made in house; host or cells: E. coli BL21(DE3) pLysS
Description: as §1, §2, §3, §4, §5

[3] = target: T3, Myc353–437 E410N (Homo sapiens, UniProt P01106, E425N); assay: Tyrosine fluorescence quenching titration; assay type: binding; details: Myc353–437 E410N mutant
T3 construct: 6xHis tag + TEV site (N, cleaved yes); made in house; host or cells: E. coli BL21(DE3) pLysS
Description: as §1, §2, §3, §4, §5

[4] = target: T4, MaxRH (Homo sapiens, UniProt P61244, K77E/M74V/Q72L/R75Q/R76A/Y73S); assay: Tyrosine fluorescence quenching titration; assay type: binding; details: for Kd: 1 µM MaxRH, read-out: dissociation constant (KD)
T4 construct: 6xHis tag + TEV site (N, cleaved yes); made in house; host or cells: E. coli BL21(DE3) pLysS
Description: as §1, §2, §3, §4, §5

[5] = target: T5, Myc353–437 A401E (Homo sapiens, UniProt P01106, A416E); assay: Tyrosine fluorescence quenching titration; assay type: binding; details: Myc353–437 A401E mutant
T5 construct: We constructed Myc353–437 A401E to determine if the same flanking residue would be permissive; 6xHis tag + TEV site (N, cleaved yes); made in house; host or cells: E. coli BL21(DE3) pLysS
Description: as §1, §2, §3, §4, §5

[6] = target: T6, MaxRH-Y115F/Y123F (Homo sapiens, UniProt P61244, K77E/M74V/Q72L/R75Q/R76A/Y115F/Y123F/Y73S); assay: Tyrosine fluorescence quenching titration; assay type: binding; details: 1 µM MaxRH-Y115F/Y123F
T6 construct: 6xHis tag + TEV site (N, cleaved yes); made in house; host or cells: E. coli BL21(DE3) pLysS
Description: as §1, §2, §3, §4, §5

[7] = target: T7, P21 Max (Homo sapiens, UniProt P61244); assay: Tyrosine fluorescence quenching titration; assay type: binding; details: 1 µM P21 Max, pH 7.4
T7 construct: 6xHis tag + TEV site (N, cleaved yes); made in house; host or cells: E. coli BL21(DE3) pLysS
Description: as §1, §2, §3, §4, §5

[8] = target: T8, Myc402–412 peptide (Homo sapiens, UniProt P01106); assay: Tyrosine fluorescence quenching titration; assay type: binding
T8 construct: purchased Genscript; host or cells: solid phase peptide synthesis
Description: as §1, §2, §3, §4, §5

[9] = target: T2, P22 Max; assay: Circular dichroism with and without 34RH; details: 1 µM P22 Max, 50 µM 34RH, pH 7.4
Description: (§6) Samples containing Myc353–437, Myc402–412 peptide, MaxRH, Max isoforms, or mutants in the absence and presence of excess concentrations of 34RH were prepared in 1xCD buffer (50 mM KF, 4.3 mM NaH2PO4, 1.4 mM KH2PO4, 5% ethanol). The pH of the buffer was adjusted to either 6 or 7.4 depending on the experiment conducted. The compound was delivered from a 1 mM ethanol stock solution. Samples were incubated for 1 hr before measurement. The far UV-spectra of the proteins and peptide were recorded in a quartz cuvette with a path length of 0.1 cm using a Jasco J720 spectropolarimeter. The samples were scanned from 270 to 195 nm with an increment of 1 nm, constant bandwidth of 10 nm, and a scanning speed of 1 nm per minute. After subtracting the buffer signal, the raw data in millidegrees was converted to mean residue ellipticity (MRE).

[10] = target: T9, Myc353–437 (Homo sapiens, UniProt P01106); assay: Circular dichroism with and without 34RH; details: 2.5 µM Myc353–437, 50 µM 34RH
T9 construct: 6xHis tag + TEV site (N, cleaved yes); made in house; host or cells: E. coli BL21(DE3) pLysS
Description: as §6

[11] = target: T4, MaxRH; assay: Circular dichroism with and without 34RH; details: 1 µM MaxRH, 50 µM 34RH
Description: as §6

[12] = target: T6, MaxRH-Y115F/Y123F; assay: Circular dichroism with and without 34RH; details: 1 µM MaxRH-Y115F/Y123F, 50 µM 34RH
Description: as §6

[13] = target: T7, P21 Max; assay: Circular dichroism with and without 34RH; details: 4 µM P21 Max, 50 µM 34RH, pH 7.4
Description: as §6

[14] = Dynamic light scattering (DLS) of 34RH; assay type: physicochemical; details: for DLS correlation function (nano-sized particles): 1xPBS, 5% DMSO, pH 7.4
Description: The small molecule (Z)-4-((4-oxo-2-thioxothiazolidin-5-ylidene)methyl)benzoic acid (hereafter referred to as 34RH) was previously synthesized according to established procedures, and the structure was confirmed by ^1H and ^13C NMR (Figure S6) using a 400 MHz spectrometer. The dry compound was stored at 4 °C. Stock solutions (1 mM) of 34RH were made using either dimethyl sulfoxide (DMSO) or ethanol and stored at −20 °C. Fluorescence and dynamic light scattering (DLS) experiments were performed using DMSO, while circular dichroism (CD) was conducted using ethanol to avoid the high absorbance of DMSO at short wavelengths. DLS measurements were performed on 34RH using an LS Spectrophotometer (LS Instruments) at 25 °C (Figure S3). The dispersant viscosity was set for water. Samples were analyzed in 1xPBS (pH 7.4) and 5% total DMSO. The compound was serially diluted two-fold from 100 μM to a final concentration of 6.25 μM. Samples were placed into 5 mm cylindrical glass cuvettes (LS Instruments) and measured using a 600 nm laser at a 90° angle for 20 s. The data were analyzed using LS Spectrophotometer software provided by the manufacturer.

[15] = target: T9, Myc353–437; assay: Tyrosine fluorescence quenching titration, excess 34RH; details: 1 µM Myc353–437, excess 34RH, 1xPBS, 25 °C, pH 7.4; Langmuir binding isotherm; read-out: dissociation constant (KD)
Description: as §1
For excess 34RH tyrosine fluorescence quenching experiments, samples were prepared with the following buffer components: sterile filtered water, 1xPBS (137 mM NaCl, 2.7 mM KCl, 4.3 mM Na2HPO4, 1.4 mM KH2PO4), and 5% total DMSO. […] All samples for fluorescence measurements maintained a final 5% DMSO concentration.
as §3, with “The samples were excited at 274 nm, and the emission spectra were obtained from 285 to 340 nm using 5 nm excitation and 5 nm emission slits using a Horiba Fluoromax 4 fluorometer.” left out, “(3) Fcorr=Fobs∗ 10^Aex+ Aem/2” left out

[16] = Imide pKa determination by UV/Vis; assay type: physicochemical; details: 1xPBS at various pH values; UV/Vis absorbance at 327 nm, 10 µM 34RH in 1xPBS; read-out: pKa of the imide group of the rhodanine heterocycle
Description: The imide pKa of 34RH was determined using UV/Vis by measuring the absorbance of 10 µM of 34RH in 1xPBS at various pH values using an Agilent 8453 UV/Vis spectrophotometer (Figure S2). The absorbance at 327 nm for each pH value was fit to a curve using the Henderson-Hasselbalch (shown in Equations (1) and (2)), where c is the pKa, x is the pH, a is the signal for the fully protonated acid, and b is the signal for the fully ionized base. (1) pKa−pH=log acid/base (2) y=a+b∗10^c−x/1+10^c−x

[17] = target: T8, Myc402–412 peptide; assay: Circular dichroism with and without small molecule; details: 2.5 µM Myc402–412 peptide, 50 µM 34RH
Description: as §6

[18] = target: T9, Myc353–437; assay: Equimolar tyrosine fluorescence quenching titration; details: equimolar Myc353–437 and 34RH, 1x PBS, 25 °C, pH 7.4; 1:1 binding model
Description: 5 x 1 05 y = m 1 * x/ ( m 2 + x)
Wavel ength (nm ) [34Rh] µM
Fig S5. Equimolar Myc353-437 and 34RH interaction monitored via tyrosine fluorescence quenching. (A) 50 µM Myc353-437 in the presence (filled black squares) and absence (open black squares) equimolar 34RH in 1x PBS at 25 ℃, pH 7.4. (B) Equilibrium quenching of […]
µM. Error bars represent the standard error of three independent trials. Representative fluorescence signals were inner filter corrected to account for any fluorescence suppression due the absorbance of protein and 34RH [46]. The quenching data was fitted to a binding model shown below described in Dobrev et al.
Fraction Quenched = Q!"# × $
Here, Qmax is the fraction quenched for the formation of the complete complex between Myc353-437 and 34RH. [C]tot is the total concentration of Myc353-437 or 34RH and KD the dissociation constant.

T9 sequence (P01106 368-452): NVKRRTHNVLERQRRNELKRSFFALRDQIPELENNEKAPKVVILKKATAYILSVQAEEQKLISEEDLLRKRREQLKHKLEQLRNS
T2 sequence (P61244 whole entry): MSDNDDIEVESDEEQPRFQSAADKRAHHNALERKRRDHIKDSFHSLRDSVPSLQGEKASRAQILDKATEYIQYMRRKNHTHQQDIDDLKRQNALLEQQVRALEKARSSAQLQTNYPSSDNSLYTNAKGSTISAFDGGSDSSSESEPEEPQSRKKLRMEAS
T4 sequence (P61244 whole entry Q72L/Y73S/M74V/R75Q/R76A/K77E): as the sequence (P61244 whole entry) above, with Q72L, Y73S, M74V, R75Q, R76A, K77E counted along it
T7 sequence (P61244 1-151 isoform P61244-2): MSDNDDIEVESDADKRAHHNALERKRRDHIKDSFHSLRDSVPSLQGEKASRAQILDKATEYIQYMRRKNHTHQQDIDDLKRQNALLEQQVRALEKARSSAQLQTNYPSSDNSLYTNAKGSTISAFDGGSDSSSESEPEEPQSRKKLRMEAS
T6 sequence (P61244 whole entry Q72L/Y73S/M74V/R75Q/R76A/K77E/Y115F/Y123F): as the sequence (P61244 whole entry) above, with Q72L, Y73S, M74V, R75Q, R76A, K77E, Y115F, Y123F counted along it
T3 sequence (P01106 368-452 E425N): as the sequence (P01106 368-452) above, with E58N counted along it
T1 sequence (P61244 whole entry Q72L/Y73S/M74V/R75Q/R76A/K77E/N78E): as the sequence (P61244 whole entry) above, with Q72L, Y73S, M74V, R75Q, R76A, K77E, N78E counted along it
T5 sequence (P01106 368-452 A416E): as the sequence (P01106 368-452) above, with A49E counted along it

With O=C1NC(=S)S/C1=C\c1ccc(C(=O)O)cc1 [34RH, (Z)-4-((4-oxo-2-thioxothiazolidin-5-ylidene)methyl)benzoic acid] the “binding by titratable tyrosine quenching” value [1] was “complete loss of observable binding”, the “titratable tyrosine fluorescence quenching (binding)” value ([2]; pH 6 (monomeric)) was “no titratable quenching” and the “titratable tyrosine fluorescence quenching (binding)” value ([2]; pH 7.4) was “does not exhibit titratable quenching”. For the same molecule, the “binding by tyrosine quenching” value [3] was “eliminated binding”, the Kd ([4]; pH 6) was 9.1 ± 3.9 µM and the Kd ([4]; pH 7.4) was 23.4 ± 1.1 µM. The “affinity weaker than in the Myc context” value ([4]; MaxRH vs Myc353–437, pH 7.4) was “about 6 fold”, the “affinity weaker relative to the peptide” value ([4]; MaxRH vs Myc402–412 peptide, pH 7.4) was roughly 2 fold and the “improvement of binding to MaxRH at pH 6” value ([4]; pH 6 vs pH 7.4) was 2.5 fold. The “binding by tyrosine quenching” value [5] was “no detectable binding”, the Kd [6] was 14.9 ± 1.9 µM and the “titratable tyrosine fluorescence quenching (binding)” value [7] was “no titratable quenching”. The “change in affinity, Myc402–412 peptide vs Myc353–437” value [8] was 3 fold, the “difference in affinity between Myc353–437 and Myc402–412 contexts” value [8] was “less than 0.7 kcal mol^−1” and the Kd ([8]; 1 µM Myc402–412 peptide, excess 34RH, Langmuir binding isotherm) was 11.5 ± 1.2 µM. For the same molecule, the “effect on CD spectrum” value [9] was “does not alter the CD”, the “effect on average conformation (CD)” value [10] was “did not substantially alter the average conformation” and the “effect on conformation (CD)” value ([11]; pH 6) was “remaining disordered”. The “effect on conformation (CD)” value ([11]; pH 7.4) was “did not change the conformation”, the “effect on conformation (CD)” value [12] was “remains disordered” and the “effect on CD spectrum” value [13] was “no indication of perturbation”. For the same molecule, the “DLS correlation function (nano-sized particles)” value ([14]; 100 µM) was “a correlation was observed”, the “DLS correlation function (nano-sized particles)” value ([14]; concentrations below 50 µM) was “no correlation function” and the “solubility based on dynamic light scattering” value ([14]; neutral pH) was “good solubility”. The Kd [15] was 3.9 ± 1.3 µM, the pKa [16] was 5.3 ± 0.3 and the “effect on structural ensemble (CD)” value [17] was “does not exhibit perturbations to the structural ensemble”. For the same molecule, the Kd [18] was 5.9 ± 0.8 µM.

From PMC9775153, “Portability of a Small-Molecule Binding Site between Disordered Proteins” (Biomolecules, 2022)
